Drawing on ChEMBL document CHEMBL3045281, “Design, synthesis, and biological evaluation of new 3-hydroxy-2-oxo-3-trifluoromethylindole as potential HIV-1 reverse transcriptase inhibitors” (Med Chem Res, 2006), this text covers CC50 and IC50 for five compounds.

The term CC50 denotes the concentration that lowers cell viability or growth by half. The low end stands for greater toxicity to the cells, the high end for lower toxicity to the cells. Usually IC50 stands for the concentration needed to halve the response being measured.

The nature of data set [1]: Cytotoxicity against Chlorocebus aethiops (African green monkey) Vero cells after 72 hr by trypan blue assay. The format is cell-based. Conditions: chlorocebus sabaeus.
Data set [2] deals with Human immunodeficiency virus type 1 reverse transcriptase (Human immunodeficiency virus 1, UniProt Q72547). Put plainly: Inhibition of RNA-dependent DNA polymerase activity of Human immunodeficiency virus 1 recombinant reverse transcriptase expressed in Escherichia coli using poly(rA)oligo(dT) template primer after 30 min.

In data set [1], `CC(=O)N1C(=O)C(O)(C(F)(F)F)c2cc(Cl)ccc21` (stereo not given) returned a CC50 at 72 h greater than 360 µM. Also, in data set [2], the IC50 was determined as 3.41 µM.
In data set [1], `O=C1Nc2ccc(Cl)cc2C1(O)C(F)(F)F` (stereo not given) came in with a CC50 at 72 h greater than 700 µM. Also, the IC50 in data set [2] came out at 7.1 µM.
Consider `O=C1Nc2ccccc2C1(O)C(F)(F)F` (stereo not given), for which, in data set [1], the CC50 at 72 h was greater than 650 µM. The IC50 in data set [2] is 6.07 µM.
Turning to `CC(=O)N1C(=O)C(O)(C(F)(F)F)c2cc(C)ccc21` (stereo not given), the CC50 at 72 h in data set [1] is greater than 650 µM. Besides, in data set [2], the IC50 is 8.37 µM.
In data set [1], `CN1C(=O)C(O)(C(F)(F)F)c2cc(Br)ccc21` (stereo not given) returned a CC50 at 72 h greater than 250 µM. The IC50 in data set [2] was determined as 3.61 µM.
